Results as given in patent US7635693B2, “Methods for preventing and treating cancer using N-thiolated β-lactam compounds and analogs thereof” (University of South Florida, priority 2002, dated 2009).
Read-outs that look alike come from different tables or passages of the source.

Tests used:
caspase-8 = details: Jurkat T cells; for increase of caspase-8 levels over untreated cells: 8 hours
Method: (§1) J. Biol Chem 276:13322-30 with some modifications. Briefly, a prepared protein extract (20 μg) is incubated in a buffer containing 50 mM Tris/pH 8.0 along with each respective caspase substrate at 20 μM in a 96 well plate. The reaction mixture is incubated at 37° C. for 2 h. After incubation, the liberated fluorescent AMC or AFC groups are measured by a Wallac Victor 1420 Multilabel counter (Turku, Finland) with 355/460 […] and 405/535 nm filters, respectively.

caspase-9 [1] = details: Jurkat T cells
Method: as §1

BID = details: Jurkat T cells, 50 μM
Method: Human Jurkat T cells were cultured in RPMI 1640, supplemented with 10% fetal calf serum, 100 units/ml of penicillin and 100 μg/ml of streptomycin. Human breast cancer MCF-7 and MDA-MB-231 cells, human prostate cancer PC-3 cells, and human head-and-neck cancer PCI-13 cells were grown in Dulbecco's modified Eagle's medium containing 10% fetal calf serum, penicillin and streptomycin. All the cell lines were maintained in a 5% CO2 atmosphere at 37° C. A whole cell extract was prepared as described previously (An et al., 1998). Briefly, cells are harvested, washed with PBS and homogenized in a lysis buffer (50 mM Tris-HCl, pH 8.0, 5 mM EDTA, 150 mM NaCl, 0.5% NP-40, 0.5 mM PMSF, and 0.5 mM dithiothreitol) for 30 min at 4° C. After that, the lysates are centrifuged at 14,000×g for 30 min and the supernatants are collected as whole cell extracts. Equal amounts of protein extract (50 μg) are resolved by SDS-polyacrylamide gel electrophoresis and then transferred to a nitrocellulose membrane (Schleicher & Schuell, Keene, N H) using a Semi-Dry Transfer System (BIO-RAD; Hercules, Calif.). The enhanced chemiluminescence (ECL) Western Blot analysis is then performed using specific antibodies to the proteins of interest.

p38 MAP kinase = assay: p38 phosphorylation, Western blot, Jurkat T cells; format: cell-based, human
Description: It has been shown that multiple stimuli including DNA damaging agents induce apoptosis via activation of p38 MAP kinase (Kummer J L, et al., 1997, Apoptosis induced by withdrawal of trophic factors is mediated by p38 mitogen-activated protein kinase. J. Biol Chem 272:20490-4; Sanchez-Prieto R, et al., 2000, A role for the p38 mitogen-acitvated protein kinase pathway in the transcriptional activation of p53 on genotoxic stress by chemotherapeutic agents. Cancer Res 60:2464-72). […] The levels of Tyr-182 phosphorylated p38 protein were increased by 3-fold at 2 h and reached its maximum (˜9-fold) by 6 h (FIG. 8A). In has been shown that dual phosphorylation of p38 on Tyr-182 and Thr-180 activates this kinase (Raingeaud J, et al., 1995, Pro-inflammatory cytokines and environmental stress cause p38 mitogen-activated protein kinase activation by dual phosphorylation on tyrosine and threonine. J Biol Chem 270:7420-6). […] Therefore, lactam 1-induced DNA damage triggered activation of p38 before S population accumulation and apoptosis induction.

MDA-MB-231 cells [2] = assay: MTT assay, MDA-MB-231; format: cell-based, human; details: MDA-MB-231, 50 μM, 24 hours
Method: MCF-7, MDA-MB-231, PC-3 and PCI-13 cells were grown to 50% confluency in a 24 well plate. […] A stock 5 mg/ml of MTT in serum-free media was then added to the cell cultures at a final concentration of 1 mg/ml, followed by a 3 hour incubation at 37° C. After cells crystallized, the media was removed and DMSO added to dissolve the metabolized MTT product. The absorbance was then measured on a Wallac Victor 1420 Multilabel counter at […].

MCF-7 cells = details: MCF-7, 50 μM, 24 hour
Method: (§2) To assay nuclear morphology, both the detached or remaining attached solid tumor cells were washed with PBS, fixed with 70% ethanol for 1 hour, and stained with Hoechst 33342 (50 μM) for 30 minutes. The nuclear morphology of cells was visualized by a fluorescence microscope.
(§3) Both attached and detached cell populations were then used for detection of apoptotic nuclear changes.

MDA-MB-231 cells [3] = details: MDA-MB-231, 50 μM, 48 hour
Method: as §2, §3

PC-3 cells = details: PC-3, 50 μM, 48 hour
Method: as §2, §3

PCI-13 cells = details: PCI-13, 50 μM, 48 hour
Method: as §2, §3

VA-13 cells = details: 50 μM
Method: (§4) (FIG. 19A) MTT assay. (FIG. 19B) Cell-free caspase-9 activity assay. A protein extract (20 μg) is incubated with 20 μM Ac-LEHD-AFC (the specific caspase-9 substrate) in a 96-well plate at 37° C. for 2 h. After incubation, the liberated florescent AFC groups are measured by Wallac Victor 1420 Multilabel counter with 405/535 nm filters. […] Both intact and active forms of caspase-3 are indicated. […] Both detached and attached populations of Va-13 or WI-38 cells are collected, and used for nuclear staining assay with DNA staining dye Hoechst 33342.
(§5) An MTT assay was performed in a 96-well plate, which measures cellular mitochondrial function and thereby cytotoxicity.

WI-38 cells = details: 50 μM
Method: as §4, §5

caspase-3 = details: 50 μM, up to 48 hours
Method: as §4

caspase-9 [4] = details: 50 μM, up to 48 hours
Method: as §4

COC1C(=O)N(SC)C1c1ccccc1Cl (racemic) [lactam 1]
time at which caspase-8 activity was detected (caspase-8; 50 μM): 2 h | time of maximal caspase-8 activity (caspase-8; 50 μM): 6 h | increase of caspase-8 levels over untreated cells (caspase-8; 50 μM): 5 fold | increase of caspase-8 levels over untreated cells (caspase-8; 30 to 40 μM): 2 fold | time at which caspase-9 activity is first detected (caspase-9 [1]; 50 μM): 4 h | caspase-9 activity (caspase-9 [1]; 8 hours, higher concentrations of lactam 1): Higher levels | time at which 15-kDa fragment of Bid was first observed (BID): 2 h | time of peak of 15-kDa fragment of Bid (BID): 6 h | increase of Tyr-182 phosphorylated p38 protein (p38 MAP kinase; 50 μM, 2 h): 3 fold | increase of Tyr-182 phosphorylated p38 protein (maximum) (p38 MAP kinase; 50 μM, 6 h): ~9 fold | levels of total p38 protein (p38 MAP kinase; 50 μM, up to 12 hours): remained relatively unchanged | normalized increase in phosphorylation of p38 over control (p38 MAP kinase; FIG. 8D): 5.9 fold | decrease of cellular viability (MTT) (MDA-MB-231 cells [2]): 80% | cells detached (MCF-7 cells): ~50% | nuclear morphology of detached cells (Hoechst 33342) (MCF-7 cells): typical apoptotic nuclear condensation and fragmentation | nuclear morphology of detached cells (Hoechst 33342) (MDA-MB-231 cells [3]): apoptosis-specific nuclear morphology | nuclear morphology of detached cells (Hoechst 33342) (PC-3 cells): apoptosis-specific nuclear morphology | nuclear morphology of detached cells (Hoechst 33342) (PCI-13 cells): apoptosis-specific nuclear morphology | cell growth (MTT) (VA-13 cells; 6 or 24 hours): completely inhibited growth | viable cells (VA-13 cells; 120 hours): no viable VA-13 cells | cell growth (MTT) (WI-38 cells; 24 hours): slightly inhibited the cell growth | cell population (WI-38 cells; 120 hours): doubled | processing and activation of caspase-3 (caspase-3; VA-13 cells): detected only in the transformed, but not normal, human cells | processing and activation of caspase-3 (caspase-3; WI-38 cells): detected only in the transformed, but not normal, human cells | cell-free caspase-9 activity (caspase-9 [4]; VA-13 cells): activated cell-free caspase-9 activity | cell-free caspase-9 activity (caspase-9 [4]; WI-38 cells): no caspase-9 activation was detected
